The values below come from patent US20200390729A1, “OPHTHALMIC TOPICAL COMPOSITION COMPRISING DOBESILIC ACID FOR TREATING DISEASES OF THE POSTERIOR SEGMENT OF THE EYE” (LABORATORIOS SALVAT, S.A., priority 2017, published 2020).

In data set [1] the test system is diabetic rats induced by streptozotocin. Description: Retinal vascularity (Evans Blue staining) in diabetic retinopathy model induced by streptozotocin. In kind it is in vivo, SD male rats. The following applies: diabetic rats (group III), CDO 10 mg/ml topical 10 μl/eye TID 28 days. The procedure:
(§1) Diabetes was induced in SD male rats by single intraperitoneal injection of streptozotocin (STZ) at 60 mg/kg body weight in citrate buffer (pH 4.5). Seven days after STZ administration, blood glucose was measured and the level of 250 mg/dl was considered the threshold value to consider diabetes induction. Ophthalmic treatment with CDO at 10 mg/ml (topical instillation of 10 μl/eye) was initiated once hyperglycemia was confirmed and continued for 28 days three times a day (TID). Rats were randomly divided in 3 groups: I. Control (non-diabetic), II. Diabetic rats with no treatment and III. Diabetic rats with CDO at 10 mg/ml.
(§2) At day 29 CDO was instilled a single time at 10 mg/ml in the group III, rats were euthanized and retinas were collected 15 minutes post-administration.
Retinal vascularity was observed by Evans Blue (EB) staining, based on the ability of EB to bind serum albumin immediately after intravenous injection. Thus Evans Blue 3% was injected through the tail vein at 1 ml/kg at 60 minutes before euthanasia at day 29. Eyeballs were fixed in paraformaldehyde 4%. Retinas were immediately after dissected and mounted in slides and observed by fluorescence microscopy.

Data set [2] has as its system egg chorioallantoic membrane (CAM). As to the kind of experiment: Ocular irritation assay (HET-CAM). Also on record: species or system White Leghorn chicken eggs. The following applies: 100 mg/ml, CAM observed for 5 minutes. The text has this: The HET-CAM is an alternative method to the Draize Rabbit Eye Test which mimics vascular changes in the chorioallantoic membrane, an analog for ocular conjunctiva, which can be used to determine the potential irritancy of a test substance. This method is based on that described in Hen's Egg Test-Chorioallantoic Membrane (HET-CAM) Test Method (ICCVAM-Recommended Test Method Protocol, NIH Publication No. 10-7553—Published 2010)
Fertilized white SPF (special pathogen free) White Leghorn chicken eggs were incubated at 37° C. and 60% humidity up to day 10. After determination of the viability of the embryo, a rectangular window was removed from the shell directly over the air cell and the egg membrane was carefully moistened with 2-3 ml 0.9% saline. After returning to the incubator for 30 minutes, the inner membrane was removed and the test substance was applied to the CAM membrane with a pipette. Eggs were observed continuously for 5 minutes for the appearance of lysis, hemorrhage and/or coagulation and an irritation score (IS) was determined following the ICCVAM-Recommended Test Method Protocol (NIH Publication No. 10-7553-Published 2010) guideline.

Data set [3] in a line: Ocular distribution of etamsylate following topical ocular single dose in rats. In kind it is in vivo, Sprague Dawley (SD) rat. To be noted: Sprague-Dawley, rat. The procedure:
Bioanalysis of CDO was performed depending on the type of matrix. In the case of plasma, proteins were precipitated using methanol. In the case of tissues, samples were grinded in a Mini Bead Beater using zirconium beads and methanol/water (1:1) (v/v) as solvent. After centrifugation, samples were analyzed by UPLC-MS/MS.
Chromatographic separation was carried out using an Acquity CSH Fluoro Phenyl column (1.7 μm, 50×2.1 mm). Mobile phase consisted of a gradient using 0.1% formic acid in water and acetonitrile from 5% to 45% in 4.5 min at a flow rate of 0.6 ml/min.
With regard to the mass spectrometric detection, the electrospray ionization source worked to record negative ions. Multiple Reaction Monitoring (MRM) acquisition mode of the deprotonated molecular ions was performed. The transition monitored for CDO was m/z 189.0→80.1 with a cone voltage of 45 V and collision energy of 25 eV.
At 15, 60 and 180 minutes post-administration, animals were euthanized and ocular tissues including retina, and optic nerve were collected.
(§3) As described in Example 2.

A short description of data set [4]: Ocular distribution of CDO following 28-day topical ocular repeated dose in diabetic rats. Type of data set: in vivo. The following applies: rat, retina, day 29, 0.25 h after single instillation, read-out: CDO μg/g tissue Retina. The procedure: 28-day repeated dose study in the diabetic rats was performed to assess CDO levels in retina at the steady state. CDO compositions 2 and 5 of Example 1 were administered by topical ocular instillation (10 μl/eye) TID for 28 days. At day 29 CDO was instilled a single time and retinas were collected 15 minutes post-administration.
as §3

In data set [5] the test system is oxidized glutathione (GSSG). Description: Antioxidant capacity: GSSG in homogenized retinas, streptozotocin diabetic retinopathy model. Type of data set: in vivo, SD male rats. The following applies: diabetic rats, CDO 10 mg/ml topical 10 μl/eye TID 28 days; P<0.01 group II vs. group III. The procedure: as §1, §2
The antioxidant capacity was evaluated by determining the concentrations of Glutathione disulfide (GSSG) or oxidized glutathione in the homogenized retinas. Tissues were collected at day 29 and homogenized in PBS pH 6-7 containing 1 mM EDTA. After centrifugation at 10000 rpm, an aliquot of the supernatant was diluted in 0.1% formic acid and analyzed by UPLC-MS/MS. […]
With regard to the mass spectrometric detection, the electrospray ionization source worked to record negative ions. […] The transition monitored for GSSG was m/z 611.2→306.2 with a cone voltage of 45 V and collision energy of 25 eV.

Where [6] appears, read: optic nerve, 0.126 mg, read-out: CDO μg/g tissue Optic nerve.
The mark [7] stands for this setting: optic nerve, 1.26 mg, read-out: CDO μg/g tissue Optic nerve.
[8] abbreviates: retina, 0.126 mg, read-out: CDO μg/g tissue Retina.
Setting [9] is: retina, 1.26 mg, read-out: CDO μg/g tissue Retina.

Molecules are shown by their SMILES. Like-named read-outs stand apart in the source and are kept apart here.

In the case of `O=S(=O)(O)c1cc(O)ccc1O` [CDO, Calcium dobesilate monohydrate], the “Retinal vascularity (fluorescence microscopy, Evans Blue)” value in data set [1] is reported as “well preserved retinas, with well-defined vessels with no evidence of vascular damages”. Besides, the HET-CAM irritation characterization entry in data set [2] is listed as “not irritating”. Besides, the “HET-CAM lysis, haemorrhage or coagulation processes” value in data set [2] is given as “did not trigger any lysis, haemorrhage or coagulation processes”. In addition, the concentration at 0.25 h is 36.5 µg/g in data set [3] (setting [6]); 25.2 µg/g in data set [3] (setting [7]); 4.39 µg/g in data set [3] (setting [8]); 4.05 µg/g in data set [3] (setting [9]); 19.5 µg/g in data set [4] (0.1 mg/eye, topical eye 28 days (3 administrations/day, 10 μl/eye) 10 mg/ml); 218 µg/g in data set [4] (1 mg/eye, topical eye 28 days (3 administrations/day, 10 μl/eye) 100 mg/ml). In addition, the concentration at 1 h in data set [3] (setting [6]) is 8.13 µg/g; in data set [3] (setting [7]), 15.8 µg/g; in data set [3] (setting [8]), 3.48 µg/g; in data set [3] (setting [9]), 2.42 µg/g. For the same compound, the concentration at 3 h in data set [3] (setting [6]) worked out at 2.32 µg/g; in data set [3] (setting [7]), 2.67 µg/g; in data set [3] (setting [8]), 0.27 µg/g; in data set [3] (setting [9]), 1.56 µg/g. Moreover, the “retinal concentrations of GSSG” value in data set [5] is reported as “return concentrations of GSSG at the same level as the control group”.
